Test results taken from ChEMBL document CHEMBL5465560, “Selectivity Literature for EUbOPEN Chemogenomic Library” (2024).

Columns and labels:
[1] = biological target: Non-receptor tyrosine-protein kinase TYK2 (Homo sapiens, UniProt P29597); experiment: Selectivity interaction (KinomeScan (DiscoverX)) EUB0000092b TYK2; conditions: at 10 µM
[2] = biological target: Protein kinase C theta type (Homo sapiens, UniProt Q04759); experiment: Selectivity interaction (KinomeScan (DiscoverX)) EUB0000655a PRKCQ; conditions: at 10 µM
[3] = biological target: T1, Ephrin type-A receptor 3 (Homo sapiens) (UniProt P29320); experiment: Selectivity interaction (KinomeScan (DiscoverX)) EUB0000655a EPHA3; conditions: at 10 µM
T1 sequence (whole entry): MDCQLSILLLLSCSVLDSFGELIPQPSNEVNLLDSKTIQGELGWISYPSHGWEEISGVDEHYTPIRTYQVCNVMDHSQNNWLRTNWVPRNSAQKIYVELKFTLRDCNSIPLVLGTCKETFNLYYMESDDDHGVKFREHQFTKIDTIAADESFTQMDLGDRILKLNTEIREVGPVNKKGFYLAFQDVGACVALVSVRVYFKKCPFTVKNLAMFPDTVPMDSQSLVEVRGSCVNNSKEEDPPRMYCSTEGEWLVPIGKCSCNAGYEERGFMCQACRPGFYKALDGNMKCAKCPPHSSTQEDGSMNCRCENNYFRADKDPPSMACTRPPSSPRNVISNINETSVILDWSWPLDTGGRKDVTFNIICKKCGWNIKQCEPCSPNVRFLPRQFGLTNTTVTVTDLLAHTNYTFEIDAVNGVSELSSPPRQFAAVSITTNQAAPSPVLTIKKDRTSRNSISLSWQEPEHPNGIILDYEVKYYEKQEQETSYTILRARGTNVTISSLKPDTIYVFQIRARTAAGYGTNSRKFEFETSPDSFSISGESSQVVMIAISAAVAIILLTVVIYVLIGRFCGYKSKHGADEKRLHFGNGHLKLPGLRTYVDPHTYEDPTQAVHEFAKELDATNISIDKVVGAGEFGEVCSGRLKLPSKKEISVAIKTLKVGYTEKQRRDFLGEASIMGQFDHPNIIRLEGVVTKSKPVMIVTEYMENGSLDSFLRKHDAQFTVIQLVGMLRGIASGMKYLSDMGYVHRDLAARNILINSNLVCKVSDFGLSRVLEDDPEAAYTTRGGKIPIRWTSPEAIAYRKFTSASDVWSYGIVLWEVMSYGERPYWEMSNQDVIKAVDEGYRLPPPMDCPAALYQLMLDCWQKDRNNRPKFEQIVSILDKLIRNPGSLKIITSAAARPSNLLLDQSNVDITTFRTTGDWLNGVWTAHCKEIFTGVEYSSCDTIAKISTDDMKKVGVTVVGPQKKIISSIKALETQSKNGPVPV

[4] = biological target: T2, Aurora kinase A (Homo sapiens) (UniProt O14965); experiment: Selectivity interaction (ProQinase) EUB0000171b STK6
T2 sequence (whole entry): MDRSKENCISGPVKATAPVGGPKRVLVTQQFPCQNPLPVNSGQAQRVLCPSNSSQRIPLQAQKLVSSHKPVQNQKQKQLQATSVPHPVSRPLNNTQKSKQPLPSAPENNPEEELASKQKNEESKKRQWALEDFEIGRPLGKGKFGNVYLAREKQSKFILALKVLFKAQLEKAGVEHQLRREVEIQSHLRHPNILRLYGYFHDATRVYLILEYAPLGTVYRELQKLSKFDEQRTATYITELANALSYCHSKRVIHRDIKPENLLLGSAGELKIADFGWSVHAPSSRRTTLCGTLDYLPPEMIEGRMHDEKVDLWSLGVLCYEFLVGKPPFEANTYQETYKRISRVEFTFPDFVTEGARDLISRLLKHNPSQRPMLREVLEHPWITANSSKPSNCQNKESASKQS

[5] = biological target: Mitogen-activated protein kinase kinase kinase 1 (Homo sapiens, UniProt Q13233); experiment: Selectivity interaction (Kinase panel (KiNativ target engagement assay in Jurkat cells)) EUB0001635a MAP3K1; assay type: cell-based; conditions: Selectivity number of off-targets 0.0, Selectivity number of targets 233.0, Source Knowledge https://www.sciencedirect.com/science/article/pii/S2451945619300674?via%3Dihub, at 1 µM
[6] = biological target: T3, Serine/threonine-protein kinase BRSK2 (Homo sapiens) (UniProt Q8IWQ3); experiment: Selectivity interaction (Ambit KINOMEscan and KiNATiv profiling in Jurkat cells) EUB0000090b BRSK2; assay type: cell-based; conditions: at 1 µM
T3 sequence (whole entry): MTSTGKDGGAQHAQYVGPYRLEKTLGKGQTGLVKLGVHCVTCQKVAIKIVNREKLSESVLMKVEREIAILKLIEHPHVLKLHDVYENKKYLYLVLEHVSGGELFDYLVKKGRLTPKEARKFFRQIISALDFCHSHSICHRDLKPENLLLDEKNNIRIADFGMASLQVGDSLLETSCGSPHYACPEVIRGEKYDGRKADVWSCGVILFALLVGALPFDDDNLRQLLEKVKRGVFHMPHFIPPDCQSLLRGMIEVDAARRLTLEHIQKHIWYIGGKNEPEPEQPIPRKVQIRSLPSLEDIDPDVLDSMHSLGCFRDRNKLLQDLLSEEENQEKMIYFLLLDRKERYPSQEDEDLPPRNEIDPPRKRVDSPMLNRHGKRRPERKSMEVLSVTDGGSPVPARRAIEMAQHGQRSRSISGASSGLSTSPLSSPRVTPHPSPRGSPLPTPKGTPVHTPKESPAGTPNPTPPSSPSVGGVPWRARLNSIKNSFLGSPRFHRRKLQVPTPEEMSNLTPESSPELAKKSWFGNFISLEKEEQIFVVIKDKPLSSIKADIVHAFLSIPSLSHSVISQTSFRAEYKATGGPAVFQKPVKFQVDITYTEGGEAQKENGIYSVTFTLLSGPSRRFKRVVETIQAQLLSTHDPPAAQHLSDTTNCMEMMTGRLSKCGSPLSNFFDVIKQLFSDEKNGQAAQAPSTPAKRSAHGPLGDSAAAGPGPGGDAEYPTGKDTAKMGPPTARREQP

[7] = biological target: Fibroblast growth factor receptor 2 (Homo sapiens) (UniProt P21802); experiment: Selectivity interaction (Ambit KINOMEscan and KiNATiv profiling in Jurkat cells) EUB0000090b FGFR2; assay type: cell-based; conditions: at 1 µM
Fibroblast growth factor receptor 2 (Homo sapiens), sequence (P21802 22-821 limits assumed): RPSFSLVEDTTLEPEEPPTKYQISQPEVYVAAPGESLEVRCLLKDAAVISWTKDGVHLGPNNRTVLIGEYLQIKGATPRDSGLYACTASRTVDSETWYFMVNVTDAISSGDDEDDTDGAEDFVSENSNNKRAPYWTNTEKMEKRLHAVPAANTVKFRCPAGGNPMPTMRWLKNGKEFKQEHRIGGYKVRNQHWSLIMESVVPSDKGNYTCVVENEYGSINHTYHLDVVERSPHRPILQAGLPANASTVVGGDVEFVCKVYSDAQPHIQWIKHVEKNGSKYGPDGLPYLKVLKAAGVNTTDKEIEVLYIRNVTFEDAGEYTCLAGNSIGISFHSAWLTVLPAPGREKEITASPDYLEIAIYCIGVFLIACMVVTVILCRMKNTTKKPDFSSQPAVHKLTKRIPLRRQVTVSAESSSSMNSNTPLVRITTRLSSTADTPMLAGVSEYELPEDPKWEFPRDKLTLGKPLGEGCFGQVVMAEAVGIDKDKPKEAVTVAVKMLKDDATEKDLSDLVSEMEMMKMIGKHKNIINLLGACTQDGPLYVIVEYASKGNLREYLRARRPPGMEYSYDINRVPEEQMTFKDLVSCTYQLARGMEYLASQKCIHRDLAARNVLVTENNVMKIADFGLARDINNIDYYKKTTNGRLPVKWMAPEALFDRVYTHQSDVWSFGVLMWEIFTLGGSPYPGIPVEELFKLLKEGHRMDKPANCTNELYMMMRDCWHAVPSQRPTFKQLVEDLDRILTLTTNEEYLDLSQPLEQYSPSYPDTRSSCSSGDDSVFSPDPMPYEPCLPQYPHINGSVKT

Mitogen-activated protein kinase kinase kinase 1, sequence (Q13233 whole entry): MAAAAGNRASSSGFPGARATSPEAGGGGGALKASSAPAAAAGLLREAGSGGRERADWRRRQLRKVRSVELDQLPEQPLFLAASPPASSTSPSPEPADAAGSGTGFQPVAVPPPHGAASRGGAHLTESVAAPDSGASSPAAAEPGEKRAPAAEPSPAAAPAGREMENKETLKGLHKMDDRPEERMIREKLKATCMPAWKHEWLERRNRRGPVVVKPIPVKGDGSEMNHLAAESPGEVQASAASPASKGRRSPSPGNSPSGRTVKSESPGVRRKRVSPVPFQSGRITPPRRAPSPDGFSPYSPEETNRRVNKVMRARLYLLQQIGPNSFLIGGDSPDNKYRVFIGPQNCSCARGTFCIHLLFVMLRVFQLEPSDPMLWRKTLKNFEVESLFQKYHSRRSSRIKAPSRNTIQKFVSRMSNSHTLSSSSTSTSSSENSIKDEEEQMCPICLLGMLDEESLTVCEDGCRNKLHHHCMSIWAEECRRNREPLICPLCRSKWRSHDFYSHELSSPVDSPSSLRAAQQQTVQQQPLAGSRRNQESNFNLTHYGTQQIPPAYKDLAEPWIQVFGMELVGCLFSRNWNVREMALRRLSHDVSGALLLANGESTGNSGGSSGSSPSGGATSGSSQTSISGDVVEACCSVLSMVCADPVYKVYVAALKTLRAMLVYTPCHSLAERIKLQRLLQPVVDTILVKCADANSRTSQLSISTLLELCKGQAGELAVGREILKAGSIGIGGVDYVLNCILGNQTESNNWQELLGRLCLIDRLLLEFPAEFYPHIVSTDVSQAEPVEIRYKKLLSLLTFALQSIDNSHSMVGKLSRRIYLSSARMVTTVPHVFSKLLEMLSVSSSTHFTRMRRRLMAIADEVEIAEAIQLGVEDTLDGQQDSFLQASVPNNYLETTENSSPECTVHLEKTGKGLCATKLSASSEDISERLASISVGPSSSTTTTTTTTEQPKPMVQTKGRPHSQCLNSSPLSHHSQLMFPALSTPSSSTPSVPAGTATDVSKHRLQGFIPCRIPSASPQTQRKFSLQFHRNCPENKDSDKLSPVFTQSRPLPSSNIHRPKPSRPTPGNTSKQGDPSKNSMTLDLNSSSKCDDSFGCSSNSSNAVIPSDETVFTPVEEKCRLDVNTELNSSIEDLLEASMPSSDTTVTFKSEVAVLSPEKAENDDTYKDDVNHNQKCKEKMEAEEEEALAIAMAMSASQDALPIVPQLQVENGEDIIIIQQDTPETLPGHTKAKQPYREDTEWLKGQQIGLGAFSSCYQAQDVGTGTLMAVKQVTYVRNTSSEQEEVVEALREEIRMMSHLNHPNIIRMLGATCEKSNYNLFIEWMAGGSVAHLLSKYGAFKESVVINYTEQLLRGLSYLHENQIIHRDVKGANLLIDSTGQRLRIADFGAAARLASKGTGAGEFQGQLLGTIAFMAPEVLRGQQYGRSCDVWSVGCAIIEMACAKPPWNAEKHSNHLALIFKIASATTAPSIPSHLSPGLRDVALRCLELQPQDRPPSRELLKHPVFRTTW
Protein kinase C theta type, sequence (Q04759 whole entry, looked up): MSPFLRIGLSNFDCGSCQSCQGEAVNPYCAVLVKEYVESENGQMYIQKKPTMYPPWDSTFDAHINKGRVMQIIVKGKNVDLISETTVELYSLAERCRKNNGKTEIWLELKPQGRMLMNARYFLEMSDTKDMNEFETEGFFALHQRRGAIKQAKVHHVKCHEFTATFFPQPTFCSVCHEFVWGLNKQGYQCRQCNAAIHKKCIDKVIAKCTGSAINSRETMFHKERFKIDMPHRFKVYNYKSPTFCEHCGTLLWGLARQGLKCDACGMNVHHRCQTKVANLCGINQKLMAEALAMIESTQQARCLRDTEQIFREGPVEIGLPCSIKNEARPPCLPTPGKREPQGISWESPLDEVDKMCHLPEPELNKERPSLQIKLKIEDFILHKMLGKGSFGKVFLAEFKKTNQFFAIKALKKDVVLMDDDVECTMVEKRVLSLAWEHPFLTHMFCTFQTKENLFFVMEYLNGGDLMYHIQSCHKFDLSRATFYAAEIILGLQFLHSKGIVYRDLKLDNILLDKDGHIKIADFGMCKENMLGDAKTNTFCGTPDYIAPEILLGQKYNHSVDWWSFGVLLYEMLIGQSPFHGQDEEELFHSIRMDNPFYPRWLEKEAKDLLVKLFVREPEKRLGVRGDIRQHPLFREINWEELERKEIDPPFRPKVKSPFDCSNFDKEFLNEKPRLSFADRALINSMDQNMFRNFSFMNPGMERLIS
Non-receptor tyrosine-protein kinase TYK2, sequence (P29597 whole entry): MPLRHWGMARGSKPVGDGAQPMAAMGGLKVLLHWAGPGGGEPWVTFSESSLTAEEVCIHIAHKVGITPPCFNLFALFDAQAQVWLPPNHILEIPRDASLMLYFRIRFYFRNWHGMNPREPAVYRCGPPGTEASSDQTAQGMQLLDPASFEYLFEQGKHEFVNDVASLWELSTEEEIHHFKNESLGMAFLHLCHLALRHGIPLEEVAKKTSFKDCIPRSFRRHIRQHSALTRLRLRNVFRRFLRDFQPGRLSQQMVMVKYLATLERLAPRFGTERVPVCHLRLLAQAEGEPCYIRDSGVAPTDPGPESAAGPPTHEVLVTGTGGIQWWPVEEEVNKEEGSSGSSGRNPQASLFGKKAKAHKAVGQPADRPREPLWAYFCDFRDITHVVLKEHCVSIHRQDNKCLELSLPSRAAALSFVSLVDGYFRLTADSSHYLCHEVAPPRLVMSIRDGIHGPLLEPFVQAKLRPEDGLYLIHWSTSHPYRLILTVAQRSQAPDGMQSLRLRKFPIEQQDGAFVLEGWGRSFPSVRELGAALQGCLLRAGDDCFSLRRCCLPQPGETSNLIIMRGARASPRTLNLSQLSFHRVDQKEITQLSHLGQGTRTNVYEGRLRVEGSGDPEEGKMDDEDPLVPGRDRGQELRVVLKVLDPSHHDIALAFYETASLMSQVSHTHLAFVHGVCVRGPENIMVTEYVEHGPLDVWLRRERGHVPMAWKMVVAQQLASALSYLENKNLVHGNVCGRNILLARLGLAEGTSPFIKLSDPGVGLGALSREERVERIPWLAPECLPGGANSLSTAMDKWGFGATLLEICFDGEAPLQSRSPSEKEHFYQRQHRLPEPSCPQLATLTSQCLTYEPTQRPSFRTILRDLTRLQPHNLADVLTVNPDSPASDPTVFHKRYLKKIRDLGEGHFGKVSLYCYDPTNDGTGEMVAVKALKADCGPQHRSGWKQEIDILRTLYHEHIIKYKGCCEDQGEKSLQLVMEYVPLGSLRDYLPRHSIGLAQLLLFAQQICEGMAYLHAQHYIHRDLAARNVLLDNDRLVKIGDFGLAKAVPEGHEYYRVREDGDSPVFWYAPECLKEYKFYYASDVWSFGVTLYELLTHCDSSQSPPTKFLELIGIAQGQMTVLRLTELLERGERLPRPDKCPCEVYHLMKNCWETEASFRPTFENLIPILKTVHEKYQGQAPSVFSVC

CCC(=O)N1CCN(c2ccc(-n3c(=O)ccc4cnc5ccc(-c6cnc7ccccc7c6)cc5c43)cc2C(F)(F)F)CC1
% of control [1]: 70%

CN(C)CCOc1ccc(-c2nc(-c3ccncc3)c(-c3ccc4c(c3)CC/C4=N\O)[nH]2)cc1
% of control [2]: 81%
% of control [3]: 99%

C=CC(=O)Nc1cccc(C(=O)Nc2ccc(Nc3cc(-c4[nH]c(SC)nc4C)ccn3)cc2)c1
% of control ([4]; at 1 µM): 74%
% of control ([4]; at 5 µM): 34%

C=CC(=O)Nc1ccc(C(=O)Nc2[nH]nc3c2CN(C(=O)N[C@H](CN(C)C)c2ccccc2)C3(C)C)cc1
% of engagement [5]: 12.9%

CN(C)C/C=C/C(=O)Nc1ccc(C(=O)N2CCCC(Nc3ncc(Cl)c(-c4c[nH]c5ccccc45)n3)C2)cc1 (stereo not drawn)
% of control [6]: 100%
% of control [7]: 67%
